Laboratory results as given in patent US20260355196A1, “INHIBITORS AND DEGRADERS OF PIP4K PROTEIN” (Larkspur Biosciences, Inc., priority 2023, published 2026).

Target: T1, PIP4K2C (Homo sapiens, UniProt Q8TBX8)
T1 sequence (Q8TBX8 1-421): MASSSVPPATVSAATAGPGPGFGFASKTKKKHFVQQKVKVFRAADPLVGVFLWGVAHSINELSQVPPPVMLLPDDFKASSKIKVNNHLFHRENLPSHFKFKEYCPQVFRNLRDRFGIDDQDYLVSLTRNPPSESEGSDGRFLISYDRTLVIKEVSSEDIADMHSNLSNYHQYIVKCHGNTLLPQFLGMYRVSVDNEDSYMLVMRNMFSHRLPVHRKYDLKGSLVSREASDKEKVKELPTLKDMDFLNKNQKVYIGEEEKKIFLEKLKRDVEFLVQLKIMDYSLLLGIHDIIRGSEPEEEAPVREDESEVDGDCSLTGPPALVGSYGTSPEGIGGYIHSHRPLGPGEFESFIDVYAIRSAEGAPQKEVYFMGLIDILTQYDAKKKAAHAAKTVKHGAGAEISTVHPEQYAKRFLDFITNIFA
Test: HiBiT PIP4K2C degradation assay in MOLT-4 cells (endogenous PIP4K2C C-terminally tagged with HiBiT)
Assay type: cell-based
Set-up: untagged in primary human PBMCs and monocyte-derived dendritic cells
Conditions: 24 hours incubation, MOLT-4, top concentration 10 micromolar; read-out: HiBIT-degradation MOLT4 PIP4k2C 24 hours DC50
How it was run: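 MOLT-4 knock-in line, HiBiT on PIP4K2C C-terminus; 22,500 cells/well; 10-pt 3-fold titration from 10 micromolar, n=2; 24 h or 6 h, 37 C, 5% CO2; Nano-Glo HiBiT lytic luminescence; DC50 via Hill equation.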

SMILES | DC50
O=C1CCC(N2Cc3cc(C4CCN(C5CCN(CCC(=O)N6CCC(Nc7ncc(Cl)c(-c8cccc(-c9ccccc9)c8)n7)CC6)CC5)CC4)ccc3C2=O)C(=O)N1 (stereo not drawn) [Compound 86, 3-(5-(1′-(3-(4-((4-([1,1′-biphenyl]-3-yl)-5-chloropyrimidin-2-yl)amino)piperidin-1-yl)-3-oxopropyl)-[1,4′-bipiperidin]-4-yl)-1-oxoisoindolin-2-yl)piperidine-2,6-dione] | 500 to 1000 nM
O=C1CCC(N2Cc3cc(OC4CCN(C5CCN(CC(=O)N6CCC(Nc7ncc(Cl)c(-c8cccc(-c9ccccc9)c8)n7)CC6)CC5)CC4)ccc3C2=O)C(=O)N1 (stereo not drawn) [Compound 87, 3-(5-((1′-(2-(4-((4-([1,1′-biphenyl]-3-yl)-5-chloropyrimidin-2-yl)amino)piperidin-1-yl)-2-oxoethyl)-[1,4′-bipiperidin]-4-yl)oxy)-1-oxoisoindolin-2-yl)piperidine-2,6-dione] | < 500 nM
O=C1CCC(N2Cc3cc(C4CCN(CCN5CCC(C(=O)N6CCC(Nc7ncc(Cl)c(-c8cccc(-c9ccccc9)c8)n7)CC6)CC5)CC4)ccc3C2=O)C(=O)N1 (stereo not drawn) [Compound 88, 3-(5-(1-(2-(4-(4-((4-([1,1′-biphenyl]-3-yl)-5-chloropyrimidin-2-yl)amino)piperidine-1-carbonyl)piperidin-1-yl)ethyl)piperidin-4-yl)-1-oxoisoindolin-2-yl)piperidine-2,6-dione] | < 500 nM
O=C1CCC(N2Cc3cc(OC4CCN(CCN5CCC(C(=O)N6CCC(Nc7ncc(Cl)c(-c8cccc(-c9ccccc9)c8)n7)CC6)CC5)CC4)ccc3C2=O)C(=O)N1 (stereo not drawn) [Compound 89, 3-(5-((1-(2-(4-(4-((4-([1,1′-biphenyl]-3-yl)-5-chloropyrimidin-2-yl)amino)piperidine-1-carbonyl)piperidin-1-yl)ethyl)piperidin-4-yl)oxy)-1-oxoisoindolin-2-yl)piperidine-2,6-dione] | < 500 nM
O=C1CCC(N2Cc3cc(OC4CCN(C5CCN(CCC(=O)N6CCC(Nc7ncc(Cl)c(-c8cccc(-c9ccccc9)c8)n7)CC6)CC5)CC4)ccc3C2=O)C(=O)N1 (stereo not drawn) [Compound 90, 3-(5-((1′-(3-(4-((4-([1,1′-biphenyl]-3-yl)-5-chloropyrimidin-2-yl)amino)piperidin-1-yl)-3-oxopropyl)-[1,4′-bipiperidin]-4-yl)oxy)-1-oxoisoindolin-2-yl)piperidine-2,6-dione] | < 500 nM
Cn1c(=O)n(C2CCC(=O)NC2=O)c2ccc(C3CCN(C4CCCN(CC(=O)N5CCC(Nc6ncc(Cl)c(-c7cccc(-c8ccc(F)cc8)c7)n6)CC5)C4)CC3)cc21 (stereo not drawn) [Compound 275, 3-(5-(1′-(2-(4-((5-chloro-4-(4′-fluoro-[1,1′-biphenyl]-3-yl)pyrimidin-2-yl)amino)piperidin-1-yl)-2-oxoethyl)-[1,3′-bipiperidin]-4-yl)-3-methyl-2-oxo-2,3-dihydro-1H-benzo[d]imidazol-1-yl)piperidine-2,6-dione] | < 500 nM
Cn1c(=O)n(C2CCC(=O)NC2=O)c2ccc(C3CCN(CC4CCN(CC(=O)N[C@H]5CC[C@H](Nc6ncc(Cl)c(-c7cccc(-c8ccc(F)cc8)c7)n6)CC5)CC4)CC3)cc21 (stereo partly drawn) [Compound 276, trans-N-(4-((5-chloro-4-(4′-fluoro-[1,1′-biphenyl]-3-yl)pyrimidin-2-yl)amino)cyclohexyl)-2-(4-((4-(1-(2,6-dioxopiperidin-3-yl)-3-methyl-2-oxo-2,3-dihydro-1H-benzo[d]imidazol-5-yl)piperidin-1-yl)methyl)piperidin-1-yl)acetamide] | < 500 nM
Cn1nc(C2CCC(=O)NC2=O)c2ccc(C3CCN(CC4CCN(CC(=O)N5CCC(Nc6ncc(Cl)c(-c7cccc(-c8ccc(F)cc8)c7)n6)CC5)CC4)CC3)cc21 (stereo not drawn) [Compound 277, 3-(6-(1-((1-(2-(4-((5-chloro-4-(4′-fluoro-[1,1′-biphenyl]-3-yl)pyrimidin-2-yl)amino)piperidin-1-yl)-2-oxoethyl)piperidin-4-yl)methyl)piperidin-4-yl)-1-methyl-1H-indazol-3-yl)piperidine-2,6-dione] | 500 to 1000 nM
Cn1nc(C2CCC(=O)NC2=O)c2ccc(C3CCN(C(=O)C4(O)CCN(CC(=O)N5CCC(Nc6ncc(Cl)c(-c7cccc(-c8ccc(F)cc8)c7)n6)CC5)CC4)CC3)cc21 (stereo not drawn) [Compound 278, 3-(6-(1-(1-(2-(4-((5-chloro-4-(4′-fluoro-[1,1′-biphenyl]-3-yl)pyrimidin-2-yl)amino)piperidin-1-yl)-2-oxoethyl)-4-hydroxypiperidine-4-carbonyl)piperidin-4-yl)-1-methyl-1H-indazol-3-yl)piperidine-2,6-dione] | < 500 nM
Cn1c(=O)n(C2CCC(=O)NC2=O)c2ccc(C3CCN(CCC4CCN(C(=O)[C@@H]5CCC[C@H](Nc6ncc(Cl)c(-c7cccc(-c8ccccc8)c7)n6)C5)CC4)CC3)cc21 (stereo partly drawn) [Compound 280, 3-(5-(1-(2-(1-((1R,3S)-3-((4-([1,1′-biphenyl]-3-yl)-5-chloropyrimidin-2-yl)amino)cyclohexane-1-carbonyl)piperidin-4-yl)ethyl)piperidin-4-yl)-3-methyl-2-oxo-2,3-dihydro-1H-benzo[d]imidazol-1-yl)piperidine-2,6-dione] | < 500 nM
Cn1c(=O)n(C2CCC(=O)NC2=O)c2ccc(C3CCN(CCC4CCN(C(=O)[C@H]5CCC[C@@H](Nc6ncc(Cl)c(-c7cccc(-c8ccccc8)c7)n6)C5)CC4)CC3)cc21 (stereo partly drawn) [Compound 281, 3-(5-(1-(2-(1-((1S,3R)-3-((4-([1,1′-biphenyl]-3-yl)-5-chloropyrimidin-2-yl)amino)cyclohexane-1-carbonyl)piperidin-4-yl)ethyl)piperidin-4-yl)-3-methyl-2-oxo-2,3-dihydro-1H-benzo[d]imidazol-1-yl)piperidine-2,6-dione] | < 500 nM
O=C1CCC(c2ccc(N3CCC(O)(CC(=O)N4CCC(C(=O)N5CCC(Nc6ncc(Cl)c(-c7cccc(-c8ccc(F)cc8)c7)n6)CC5)CC4)CC3)c(F)c2)C(=O)N1 (stereo not drawn) [Compound 282, 3-(4-(4-(2-(4-(4-((5-chloro-4-(4′-fluoro-[1,1′-biphenyl]-3-yl)pyrimidin-2-yl)amino)piperidine-1-carbonyl)piperidin-1-yl)-2-oxoethyl)-4-hydroxypiperidin-1-yl)-3-fluorophenyl)piperidine-2,6-dione] | < 500 nM
O=C1CCC(Nc2ccc(N3CCC(N4CCC(C(=O)N[C@H]5CC[C@H](Nc6ncc(Cl)c(-c7cccc(-c8ccc(F)cc8)c7)n6)CC5)CC4)CC3)cc2)C(=O)N1 (stereo partly drawn) [Compound 285, trans-N-(4-((5-chloro-4-(4′-fluoro-[1,1′-biphenyl]-3-yl)pyrimidin-2-yl)amino)cyclohexyl)-1′-(4-((2,6-dioxopiperidin-3-yl)amino)phenyl)-[1,4′-bipiperidine]-4-carboxamide] | < 500 nM
Cn1c(=O)n(C2CCC(=O)NC2=O)c2ccc(C3CCN(CC4CCN(CC(=O)N5CCC(Nc6ncc(F)c(-c7cccc(-c8ccccc8)c7)n6)CC5)CC4)CC3)cc21 (stereo not drawn) [Compound 286, 3-(5-(1-((1-(2-(4-((4-([1,1′-biphenyl]-3-yl)-5-fluoropyrimidin-2-yl)amino)piperidin-1-yl)-2-oxoethyl)piperidin-4-yl)methyl)piperidin-4-yl)-3-methyl-2-oxo-2,3-dihydro-1H-benzo[d]imidazol-1-yl)piperidine-2,6-dione] | < 500 nM
Cn1c(=O)n(C2CCC(=O)NC2=O)c2ccc(C3CCN(CC4CCN(CC(=O)N5CCC(Nc6ncc(Cl)c(-c7cccc(-c8ccc(F)cc8)c7)n6)CC5)CC4)CC3)cc21 (stereo not drawn) [Compound 287, 3-(5-(1-((1-(2-(4-((5-chloro-4-(4′-fluoro-[1,1′-biphenyl]-3-yl)pyrimidin-2-yl)amino)piperidin-1-yl)-2-oxoethyl)piperidin-4-yl)methyl)piperidin-4-yl)-3-methyl-2-oxo-2,3-dihydro-1H-benzo[d]imidazol-1-yl)piperidine-2,6-dione] | < 500 nM
Cn1c(=O)n(C2CCC(=O)NC2=O)c2ccc(C3CCN(CC4CCN(CC(=O)N5CCC(Nc6ncc(F)c(-c7cccc(-c8ccc(F)cc8)c7)n6)CC5)CC4)CC3)cc21 (stereo not drawn) [Compound 288, 3-(5-(1-((1-(2-(4-((5-fluoro-4-(4′-fluoro-[1,1′-biphenyl]-3-yl)pyrimidin-2-yl)amino)piperidin-1-yl)-2-oxoethyl)piperidin-4-yl)methyl)piperidin-4-yl)-3-methyl-2-oxo-2,3-dihydro-1H-benzo[d]imidazol-1-yl)piperidine-2,6-dione] | < 500 nM
Cn1nc(C2CCC(=O)NC2=O)c2ccc(C3CCN(C(=O)CN4CCC(O)(C(=O)N5CCC(Nc6ncc(Cl)c(-c7cccc(-c8ccc(F)cc8)c7)n6)CC5)CC4)CC3)cc21 (stereo not drawn) [Compound 289, 3-(6-(1-(2-(4-(4-((5-chloro-4-(4′-fluoro-[1,1′-biphenyl]-3-yl)pyrimidin-2-yl)amino)piperidine-1-carbonyl)-4-hydroxypiperidin-1-yl)acetyl)piperidin-4-yl)-1-methyl-1H-indazol-3-yl)piperidine-2,6-dione] | < 500 nM
Cn1nc(C2CCC(=O)NC2=O)c2ccc(C3CCN(CC(=O)N4CCC(O)(C(=O)N5CCC(Nc6ncc(Cl)c(-c7cccc(-c8ccc(F)cc8)c7)n6)CC5)CC4)CC3)cc21 (stereo not drawn) [Compound 290, 3-(6-(1-(2-(4-(4-((5-chloro-4-(4′-fluoro-[1,1′-biphenyl]-3-yl)pyrimidin-2-yl)amino)piperidine-1-carbonyl)-4-hydroxypiperidin-1-yl)-2-oxoethyl)piperidin-4-yl)-1-methyl-1H-indazol-3-yl)piperidine-2,6-dione] | < 500 nM
